In ChEMBL document CHEMBL1201862, “PubChem BioAssay data set” (2004):
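96-well plates; 48 h exposure; 5 concentrations. Endpoints by linear interpolation between flanking doses. Not reached: highest tested concentration assigned. Here, GI50 denotes the concentration required for 50% inhibition of growth.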 Calls of active or inactive are those of the source. No stated cut-off is given here; in the data, active = GI50 up to about 1.1 µM and inactive = higher.

Tests used:
Assay in all cases: NCI tumour cell line growth inhibition, 48 h
[1] = system: TK-10
[2] = system: NCI-H23
[3] = system: SF-295
[4] = system: NCI-H522
[5] = system: EKVX
[6] = system: RPMI-8226
[7] = system: SK-MEL-5
[8] = system: MDA-MB-231
[9] = system: K562
[10] = system: SK-MEL-2
[11] = system: UO-31
[12] = system: COLO 205
[13] = system: SK-MEL-28
[14] = system: HCT-15
[15] = system: A549
[16] = system: IGROV-1
[17] = system: NCI-H460
[18] = system: SF-539

Row | Compound | GI50 [1] | GI50 [2] | GI50 [3] | GI50 [4] | GI50 [5] | GI50 [6] | GI50 [7] | GI50 [8] | GI50 [9] | GI50 [10] | GI50 [11] | GI50 [12] | GI50 [13] | GI50 [14] | GI50 [15] | GI50 [16] | GI50 [17] | GI50 [18]
1 | CNC1=C(C)C(=O)C(O)=C([C@H](C)CCC=C(C)C)C1=O | 31 µM (inactive) | 20 µM (inactive) | 11.4 µM (inactive) | 3.77 µM (inactive) | 2.33 µM (inactive) | 2.94 µM (inactive) | 14.4 µM (inactive) | 48 µM (inactive) | 29 µM (inactive) | 17.7 µM (inactive) | 9.82 µM (inactive) | 25.4 µM (inactive) | 31.4 µM (inactive) | 6.92 µM | 20.3 µM (inactive) | 3.91 µM (inactive) | 10.5 µM (inactive) | –
2 | CC(C)OP(=O)(OC(C)C)/C(C#N)=C/c1c[nH]c2ccccc12 | > 100 µM (inactive) | 46.2 µM (inactive) | 38.9 µM (inactive) | > 100 µM (inactive) | 48.9 µM (inactive) | > 100 µM (inactive) | 51.3 µM (inactive) | > 100 µM (inactive) | > 100 µM (inactive) | > 100 µM (inactive) | – | 88.9 µM (inactive) | > 100 µM (inactive) | > 100 µM | > 100 µM (inactive) | > 100 µM (inactive) | > 100 µM (inactive) | > 100 µM (inactive)
3 | C=C(Cl)c1c(OC)cccc1OCc1ccccc1 | > 100 µM (inactive) | 26.1 µM (inactive) | > 100 µM (inactive) | 44.6 µM (inactive) | 59.4 µM (inactive) | 43 µM (inactive) | 34.4 µM (inactive) | 64.7 µM (inactive) | 48.2 µM (inactive) | > 100 µM (inactive) | 55 µM (inactive) | 98.2 µM (inactive) | > 100 µM (inactive) | 92.7 µM | > 100 µM (inactive) | 57.5 µM (inactive) | > 100 µM (inactive) | > 100 µM (inactive)
4 | CCOC(=O)NC(Nc1cc(Cl)ccc1OC)(C(F)(F)F)C(F)(F)F | > 100 µM (inactive) | > 100 µM (inactive) | – | 64 µM (inactive) | > 100 µM (inactive) | > 100 µM (inactive) | > 100 µM (inactive) | > 100 µM (inactive) | > 100 µM (inactive) | > 100 µM (inactive) | 30.1 µM (inactive) | – | > 100 µM (inactive) | > 100 µM | > 100 µM (inactive) | > 100 µM (inactive) | > 100 µM (inactive) | > 100 µM (inactive)
5 | COc1cccc2c1OCC1Cc3ccccc3OC21 (stereo not given) | 21.1 µM (inactive) | 42.4 µM (inactive) | 36.6 µM (inactive) | > 100 µM (inactive) | 73.3 µM (inactive) | 47.6 µM (inactive) | 14.8 µM (inactive) | 31 µM (inactive) | 61.1 µM (inactive) | 35.4 µM (inactive) | 35.2 µM (inactive) | 32.2 µM (inactive) | – | 43 µM | 35.1 µM (inactive) | > 100 µM (inactive) | – | 41.6 µM (inactive)
6 | CCCCOCCOCCOC1=CC(=O)c2c(O)ccc(O)c2C1=O | 3.05 µM (inactive) | 1.82 µM (inactive) | 1.68 µM (inactive) | 1.63 µM (inactive) | 5.19 µM (inactive) | 2.4 µM (inactive) | 1.05 µM (active) | 1.73 µM (inactive) | 2.5 µM (inactive) | 1.9 µM (inactive) | 1.58 µM (inactive) | 1.4 µM (inactive) | 1.53 µM (inactive) | – | 1.8 µM (inactive) | 1.89 µM (inactive) | 1.95 µM (inactive) | 2.03 µM (inactive)
7 | N#CCCN(CCCN(C(=O)N(c1ccccc1)c1ccccc1)c1ccccc1)C(=O)Nc1ccccc1 | > 100 µM (inactive) | > 100 µM (inactive) | 76.6 µM (inactive) | 58.3 µM (inactive) | 35.6 µM (inactive) | 94 µM (inactive) | 24.9 µM (inactive) | > 100 µM (inactive) | 28.6 µM (inactive) | > 100 µM (inactive) | 67 µM (inactive) | > 10 µM (inactive) | > 100 µM (inactive) | > 100 µM | 18.9 µM (inactive) | – | 40 µM (inactive) | > 100 µM (inactive)
8 | CCCCCCCCCCCCCCCCOc1ccc(/C=C/C2=[N+](CCCl)CCO2)cc1 | 47.1 µM (inactive) | – | 55.8 µM (inactive) | > 100 µM (inactive) | > 100 µM (inactive) | > 100 µM (inactive) | > 100 µM (inactive) | 20.1 µM (inactive) | 77.3 µM (inactive) | > 100 µM (inactive) | > 100 µM (inactive) | 67.6 µM (inactive) | > 100 µM (inactive) | > 100 µM | > 100 µM (inactive) | 61.2 µM (inactive) | 90.4 µM (inactive) | > 100 µM (inactive)
9 | C[C@H]1SC(c2ccc(Cl)cc2Cl)N(NC(=O)c2ccncc2)C1=O (stereo not given in full) | – | 33.3 µM (inactive) | 49.1 µM (inactive) | 22.6 µM (inactive) | 31.1 µM (inactive) | 35.6 µM (inactive) | 19.2 µM (inactive) | 33.9 µM (inactive) | 23.5 µM (inactive) | 24.3 µM (inactive) | 25.3 µM (inactive) | 37.7 µM (inactive) | 31.3 µM (inactive) | 42 µM | – | 41.2 µM (inactive) | 45.5 µM (inactive) | –
